According to US7625939B2, “Cyclopropyl-fused pyrrolidine derivatives as dipeptidyl peptidase IV inhibitors” (Probiodrug AG, priority 2005, dated 2009):

Experiments:
Assay type in all cases: biochemical
Conditions in all cases: Gly-Pro-pNA 0.4 mM, HEPES pH 7.6, 30° C.
[1] = biological target: T1, purified porcine DP IV (Sus scrofa, UniProt P22411); assay: IC50 of DP IV inhibition, porcine kidney enzyme (Gly-Pro-pNA substrate)
T1 construct: purified porcine DP IV; from tissue; host or cells: porcine kidney
T1 sequence (P22411 whole entry): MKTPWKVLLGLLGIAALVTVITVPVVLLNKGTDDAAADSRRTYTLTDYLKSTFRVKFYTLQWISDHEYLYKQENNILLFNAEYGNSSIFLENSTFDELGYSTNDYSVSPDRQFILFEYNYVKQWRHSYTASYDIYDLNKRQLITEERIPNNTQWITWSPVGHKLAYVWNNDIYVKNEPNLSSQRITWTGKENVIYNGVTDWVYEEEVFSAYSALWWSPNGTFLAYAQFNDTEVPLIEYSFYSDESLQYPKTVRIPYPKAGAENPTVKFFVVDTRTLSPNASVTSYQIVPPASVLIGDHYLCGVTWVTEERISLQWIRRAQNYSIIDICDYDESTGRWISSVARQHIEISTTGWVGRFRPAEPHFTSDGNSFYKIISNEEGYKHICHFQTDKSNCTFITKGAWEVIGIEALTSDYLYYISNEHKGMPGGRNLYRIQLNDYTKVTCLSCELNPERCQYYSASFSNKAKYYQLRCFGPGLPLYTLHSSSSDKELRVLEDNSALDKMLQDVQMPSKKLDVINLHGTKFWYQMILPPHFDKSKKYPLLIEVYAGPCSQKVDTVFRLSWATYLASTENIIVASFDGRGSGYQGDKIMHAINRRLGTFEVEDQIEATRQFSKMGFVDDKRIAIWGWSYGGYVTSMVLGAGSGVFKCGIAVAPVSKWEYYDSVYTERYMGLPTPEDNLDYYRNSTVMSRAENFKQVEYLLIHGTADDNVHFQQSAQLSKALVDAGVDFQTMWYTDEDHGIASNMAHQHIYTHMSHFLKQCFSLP
Protocol: (§1) 100 μl inhibitor stock solution were mixed with 100 μl buffer (HEPES pH 7.6) and 50 μl substrate (Gly-Pro-pNA, final concentration 0.4 mM) and preincubated at 30° C. Reaction was started by addition of 20 μl enzyme solution (either purified porcine DP IV, human recombinant DP IV, human recombinant DP II or human recombinant DP9). Formation of the product pNA was measured at 405 nm over 10 min using the HTS 7000Plus plate reader (Perkin Elmer) and slopes were calculated. The final inhibitor concentrations ranged between 1 mM and 30 nM.
(§2) For calculation of IC50-values GraFit 4.0.13 (Erithacus Software) was used.

[2] = biological target: human recombinant DP IV (Homo sapiens, UniProt P27487); assay: IC50 of DP IV inhibition, human recombinant enzyme (Gly-Pro-pNA substrate)
Chain of human recombinant DP IV (P27487 whole entry): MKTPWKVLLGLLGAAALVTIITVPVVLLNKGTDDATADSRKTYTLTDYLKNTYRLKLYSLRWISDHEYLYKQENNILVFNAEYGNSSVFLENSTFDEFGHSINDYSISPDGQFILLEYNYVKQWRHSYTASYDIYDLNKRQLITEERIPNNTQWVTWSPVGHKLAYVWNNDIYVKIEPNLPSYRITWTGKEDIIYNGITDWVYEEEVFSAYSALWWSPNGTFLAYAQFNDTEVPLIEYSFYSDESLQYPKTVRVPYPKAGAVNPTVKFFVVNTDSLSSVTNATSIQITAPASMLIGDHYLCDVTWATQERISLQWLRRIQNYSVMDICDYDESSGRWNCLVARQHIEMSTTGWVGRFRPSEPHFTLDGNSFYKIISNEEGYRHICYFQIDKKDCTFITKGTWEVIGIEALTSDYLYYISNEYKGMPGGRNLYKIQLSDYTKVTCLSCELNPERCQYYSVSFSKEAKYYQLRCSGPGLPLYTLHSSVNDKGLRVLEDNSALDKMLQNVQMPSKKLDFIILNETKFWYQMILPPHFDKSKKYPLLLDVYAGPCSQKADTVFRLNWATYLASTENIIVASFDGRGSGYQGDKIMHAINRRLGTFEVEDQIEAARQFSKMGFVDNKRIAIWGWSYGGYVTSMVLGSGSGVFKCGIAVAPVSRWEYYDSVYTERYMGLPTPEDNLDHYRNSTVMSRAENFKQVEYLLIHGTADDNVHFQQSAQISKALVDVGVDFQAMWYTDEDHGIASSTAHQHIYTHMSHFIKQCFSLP
Protocol: as §1, §2

[3] = biological target: human recombinant DP9 (Homo sapiens, UniProt Q86TI2); assay: IC50 of DP9 inhibition, human recombinant enzyme (Gly-Pro-pNA substrate)
Chain of human recombinant DP9 (Q86TI2 whole entry): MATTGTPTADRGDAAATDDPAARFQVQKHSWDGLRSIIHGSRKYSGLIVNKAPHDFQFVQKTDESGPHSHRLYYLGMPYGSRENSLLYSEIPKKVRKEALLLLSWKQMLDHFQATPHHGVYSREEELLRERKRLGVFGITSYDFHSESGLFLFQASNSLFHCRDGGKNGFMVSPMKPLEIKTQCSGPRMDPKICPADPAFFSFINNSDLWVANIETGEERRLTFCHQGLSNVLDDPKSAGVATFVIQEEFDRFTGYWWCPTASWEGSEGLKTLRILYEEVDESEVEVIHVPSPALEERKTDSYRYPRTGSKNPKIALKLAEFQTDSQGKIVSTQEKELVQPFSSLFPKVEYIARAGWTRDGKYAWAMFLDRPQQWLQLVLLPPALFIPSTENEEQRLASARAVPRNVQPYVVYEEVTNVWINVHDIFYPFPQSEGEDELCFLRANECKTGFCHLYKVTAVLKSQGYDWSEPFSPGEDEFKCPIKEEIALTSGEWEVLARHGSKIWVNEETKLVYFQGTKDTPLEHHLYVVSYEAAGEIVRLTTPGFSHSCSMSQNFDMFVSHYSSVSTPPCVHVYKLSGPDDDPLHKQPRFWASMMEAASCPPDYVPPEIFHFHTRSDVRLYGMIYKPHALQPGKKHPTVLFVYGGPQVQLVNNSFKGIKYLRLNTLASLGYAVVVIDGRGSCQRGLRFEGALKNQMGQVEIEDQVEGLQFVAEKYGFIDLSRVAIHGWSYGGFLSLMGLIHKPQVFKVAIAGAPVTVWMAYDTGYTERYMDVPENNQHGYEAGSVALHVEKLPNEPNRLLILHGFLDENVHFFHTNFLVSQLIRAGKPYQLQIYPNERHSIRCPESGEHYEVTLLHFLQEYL
Protocol: as §1, §2

[4] = biological target: human recombinant DP II (Homo sapiens, UniProt Q9UHL4); assay: IC50 of DP II inhibition, human recombinant enzyme (Gly-Pro-pNA substrate)
Protocol: as §1, §2

Row | Structure (SMILES) | IC50 [1] [nM] | IC50 [2] [nM] | IC50 [3] [nM] | IC50 [4] [nM]
1 | CC(C)[C@H](N)C(=O)N1CC2CC2C1B(O)O (stereo partly drawn) [Example 1] | 3.53 | 31.6 | 15.9 | 3820
2 | CC(C)(C)[C@H](N)C(=O)N1CC2CC2C1B(O)O (stereo partly drawn) [Example 2] | 10.2 | 75 | 18.4 | 21100
3 | CC[C@H](C)[C@H](N)C(=O)N1CC2CC2C1B(O)O (stereo partly drawn) [Example 3] | 9.46 | 45.1 | 10.8 | 1470
